Measured values reported in ChEMBL document CHEMBL1201862, “PubChem BioAssay data set” (2004).
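Following 48 hours of exposure in 96-well plates, responses at five concentrations were used to interpolate endpoints linearly. GI50 = concentration required for 50% inhibition of growth.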 The source made the active and inactive calls. No stated cut-off is given here; in the data, active = GI50 up to about 1.1 µM and inactive = higher.

Columns and labels:
Test in all cases: growth of human tumour cells (NCI), 48 h
[1] = test system: 786-0
[2] = test system: HCC 2998
[3] = test system: HCT-15
[4] = test system: HOP-92
[5] = test system: KM12
[6] = test system: LOX IMVI
[7] = test system: MDA-MB-435
[8] = test system: MOLT-4
[9] = test system: NCI-H460
[10] = test system: OVCAR-8
[11] = test system: SF-539
[12] = test system: SK-OV-3
[13] = test system: SN12C
[14] = test system: SNB-19
[15] = test system: SW-620
[16] = test system: UACC-62
[17] = test system: Hs-578T
[18] = test system: RPMI-8226
[19] = test system: HL-60
[20] = test system: RXF 393

| SMILES | GI50 [1] | GI50 [2] | GI50 [3] [µM] | GI50 [4] | GI50 [5] | GI50 [6] | GI50 [7] | GI50 [8] | GI50 [9] | GI50 [10] | GI50 [11] | GI50 [12] | GI50 [13] | GI50 [14] | GI50 [15] | GI50 [16] | GI50 [17] | GI50 [18] | GI50 [19] | GI50 [20] |
| --- | --- | --- | --- | --- | --- | --- | --- | --- | --- | --- | --- | --- | --- | --- | --- | --- | --- | --- | --- | --- |
| COc1cc2cc(C(=O)N3CC(CCl)c4c3cc(NC(=O)C(C)Nc3c([N+](=O)[O-])cc(C(=O)NCCN(C)C)cc3[N+](=O)[O-])c3ccccc43)[nH]c2c(OC)c1OC (stereo not drawn) | 0.0204 µM (active) | 0.0315 µM (active) | 0.164 | 0.0285 µM (active) | 0.119 µM (active) | 0.0478 µM (active) | 0.16 µM (active) | 0.0244 µM (active) | 0.0157 µM (active) | 0.132 µM (active) | 0.0331 µM (active) | 0.21 µM (active) | 0.105 µM (active) | 0.14 µM (active) | 0.117 µM (active) | 0.0586 µM (active) | – | – | – | – |
| CCOP(=O)(OCC)C1CC(O)CN1OC(=O)C(C)(C)C (stereo not drawn) | > 100 µM (inactive) | – | > 100 | – | > 100 µM (inactive) | > 100 µM (inactive) | > 100 µM (inactive) | > 100 µM (inactive) | – | > 100 µM (inactive) | – | > 100 µM (inactive) | > 100 µM (inactive) | > 100 µM (inactive) | > 100 µM (inactive) | > 100 µM (inactive) | > 100 µM (inactive) | > 100 µM (inactive) | – | – |
| O=[N+]([O-])/C(C(Cl)=C(Cl)Cl)=C1\NCCO1 | > 100 µM (inactive) | > 100 µM (inactive) | > 100 | – | > 100 µM (inactive) | > 100 µM (inactive) | > 100 µM (inactive) | 69.5 µM (inactive) | > 100 µM (inactive) | > 100 µM (inactive) | > 100 µM (inactive) | > 100 µM (inactive) | > 100 µM (inactive) | > 100 µM (inactive) | – | 35.7 µM (inactive) | 47.5 µM (inactive) | > 100 µM (inactive) | 81.5 µM (inactive) | 90.4 µM (inactive) |
| CS(=O)(=O)OCOS(C)(=O)=O | > 100 µM (inactive) | > 100 µM (inactive) | 59.3 | > 100 µM (inactive) | > 100 µM (inactive) | 43.8 µM (inactive) | > 100 µM (inactive) | 22.9 µM (inactive) | 39.8 µM (inactive) | > 100 µM (inactive) | > 100 µM (inactive) | > 100 µM (inactive) | > 100 µM (inactive) | > 100 µM (inactive) | 34.4 µM (inactive) | > 100 µM (inactive) | – | 31.9 µM (inactive) | 26.7 µM (inactive) | – |
| Cc1ccc(-c2c(C#N)c(-c3ccccc3)n(NS(=O)(=O)c3ccccc3)c(=O)c2C#N)cc1 | > 100 µM (inactive) | 47.3 µM (inactive) | 60 | 61.5 µM (inactive) | 89.3 µM (inactive) | 51.1 µM (inactive) | 99.8 µM (inactive) | 20.7 µM (inactive) | 61.7 µM (inactive) | > 100 µM (inactive) | 87.1 µM (inactive) | > 100 µM (inactive) | > 100 µM (inactive) | 76 µM (inactive) | 86.3 µM (inactive) | 95.5 µM (inactive) | – | 19.6 µM (inactive) | – | 63.4 µM (inactive) |
| COc1cc2c(cc1Cl)[n+]([O-])c(C#N)c(N1CCN(c3ccc([N+](=O)[O-])cc3)CC1)[n+]2[O-] | 12.7 µM (inactive) | 19.1 µM (inactive) | 11.1 | – | 21.9 µM (inactive) | 4.68 µM (inactive) | 19.5 µM (inactive) | 5 µM (inactive) | 7.78 µM (inactive) | 7.28 µM (inactive) | 10.8 µM (inactive) | 23.9 µM (inactive) | 32.6 µM (inactive) | 32 µM (inactive) | 22.5 µM (inactive) | 11.6 µM (inactive) | 10.3 µM (inactive) | 0.631 µM (active) | 51.2 µM (inactive) | 27 µM (inactive) |
| C/C=C/C(C/C=C(\C)CO[Si](C)(C)C(C)(C)C)O[Si](C)(C)C(C)(C)C (stereo not drawn) | > 100 µM (inactive) | > 100 µM (inactive) | > 100 | – | > 100 µM (inactive) | > 100 µM (inactive) | > 100 µM (inactive) | > 100 µM (inactive) | > 100 µM (inactive) | > 100 µM (inactive) | > 100 µM (inactive) | > 100 µM (inactive) | > 100 µM (inactive) | > 100 µM (inactive) | > 100 µM (inactive) | > 100 µM (inactive) | > 100 µM (inactive) | > 100 µM (inactive) | > 100 µM (inactive) | > 100 µM (inactive) |
| CS/C(=N/S(=O)(=O)c1ccc(Cl)cc1)NCCCN/C(=N\S(=O)(=O)c1ccc(Cl)cc1)SC | 25.2 µM (inactive) | 22.5 µM (inactive) | 7.76 | 1.81 µM (inactive) | – | 14 µM (inactive) | 9.42 µM (inactive) | 4.8 µM (inactive) | 10.2 µM (inactive) | 19.8 µM (inactive) | 64 µM (inactive) | 31.1 µM (inactive) | 5.08 µM (inactive) | 80.7 µM (inactive) | 45.6 µM (inactive) | 16.9 µM (inactive) | – | 13.7 µM (inactive) | 8.38 µM (inactive) | – |
| COC(=O)[C@H]1CC(=O)C=C2CCCC21 (stereo partly drawn) | > 100 µM (inactive) | > 100 µM (inactive) | > 100 | > 100 µM (inactive) | > 100 µM (inactive) | > 100 µM (inactive) | – | > 100 µM (inactive) | > 100 µM (inactive) | > 100 µM (inactive) | > 100 µM (inactive) | > 100 µM (inactive) | > 100 µM (inactive) | > 100 µM (inactive) | > 100 µM (inactive) | > 100 µM (inactive) | – | > 100 µM (inactive) | > 100 µM (inactive) | > 100 µM (inactive) |
| CC(C)(C)NC1C2CCC(C)(C1O)C2(C)C (stereo not drawn) | > 100 µM (inactive) | > 100 µM (inactive) | > 100 | – | > 100 µM (inactive) | > 100 µM (inactive) | > 100 µM (inactive) | > 100 µM (inactive) | > 100 µM (inactive) | > 100 µM (inactive) | > 100 µM (inactive) | > 100 µM (inactive) | – | > 100 µM (inactive) | > 100 µM (inactive) | 3.67 µM (inactive) | – | > 100 µM (inactive) | – | > 100 µM (inactive) |
| COc1ccccc1/C=C/C1=NN(c2cccc(S(=O)(=O)O)c2)C2(C1)C(Cl)C(=O)N2c1nc2ccccc2s1 (stereo not drawn) | 37.8 µM (inactive) | > 91 µM (inactive) | 57.4 | – | 51.6 µM (inactive) | 29.7 µM (inactive) | 54.6 µM (inactive) | 34 µM (inactive) | 37.8 µM (inactive) | > 51.4 µM (inactive) | 58.2 µM (inactive) | > 100 µM (inactive) | > 84.1 µM (inactive) | > 84.7 µM (inactive) | > 100 µM (inactive) | 48.8 µM (inactive) | > 100 µM (inactive) | 19 µM (inactive) | 22.1 µM (inactive) | 31.3 µM (inactive) |
| C=CCC1(C)CCCCC1(O)C[S+]([O-])c1ccccc1 (stereo not drawn) | > 100 µM (inactive) | > 100 µM (inactive) | > 100 | > 100 µM (inactive) | > 100 µM (inactive) | > 100 µM (inactive) | – | > 100 µM (inactive) | > 100 µM (inactive) | > 100 µM (inactive) | > 100 µM (inactive) | > 100 µM (inactive) | > 100 µM (inactive) | > 100 µM (inactive) | > 100 µM (inactive) | > 100 µM (inactive) | – | 33.7 µM (inactive) | 54.5 µM (inactive) | > 100 µM (inactive) |
| COc1nc2c(c(=O)n1C)N=C(c1ccccc1)[C@H](C(CC(=O)c1ccccc1)c1ccccc1)C(c1ccccc1)N2 (stereo partly drawn) | 76.4 µM (inactive) | 83.8 µM (inactive) | – | > 100 µM (inactive) | 30.8 µM (inactive) | > 100 µM (inactive) | > 100 µM (inactive) | 19.5 µM (inactive) | – | 54.5 µM (inactive) | > 100 µM (inactive) | > 100 µM (inactive) | 44.7 µM (inactive) | > 100 µM (inactive) | > 100 µM (inactive) | > 100 µM (inactive) | – | 36.7 µM (inactive) | 38.4 µM (inactive) | 28.5 µM (inactive) |
| C=C1C(=O)O[C@H]2[C@@H](O)[C@H](C)CCC[C@]3(C)O[C@H]3CC[C@@]3(C)O[C@@H]3C[C@@H]12 | 5.15 µM (inactive) | 4.93 µM (inactive) | 1.29 | – | 7.94 µM (inactive) | – | 3.74 µM (inactive) | 1.55 µM (inactive) | – | 6.25 µM (inactive) | 6.81 µM (inactive) | 10.1 µM (inactive) | 5.74 µM (inactive) | 11.9 µM (inactive) | 1.52 µM (inactive) | 2.3 µM (inactive) | 7.59 µM (inactive) | 2.15 µM (inactive) | 0.897 µM (active) | 1.67 µM (inactive) |
| O=C1C=C/C(=N\N=C(c2ccccc2)c2ccccc2)O1 | > 10 µM (inactive) | > 10 µM (inactive) | > 10 | > 10 µM (inactive) | > 10 µM (inactive) | > 10 µM (inactive) | > 10 µM (inactive) | > 10 µM (inactive) | – | > 10 µM (inactive) | – | > 10 µM (inactive) | > 10 µM (inactive) | – | > 10 µM (inactive) | > 10 µM (inactive) | – | > 10 µM (inactive) | > 10 µM (inactive) | > 10 µM (inactive) |
| C1=NN(Cc2ccccc2)C(N(Cc2ccccc2)Cc2ccccc2)N1 (stereo not drawn) | 17.8 µM (inactive) | 17.5 µM (inactive) | 16.1 | 12.8 µM (inactive) | 16.3 µM (inactive) | 15.3 µM (inactive) | – | 15.2 µM (inactive) | 18.1 µM (inactive) | 23.9 µM (inactive) | 15.4 µM (inactive) | 15.4 µM (inactive) | 17 µM (inactive) | 20.9 µM (inactive) | 20.6 µM (inactive) | 14 µM (inactive) | – | 3.9 µM (inactive) | 4.91 µM (inactive) | 16.2 µM (inactive) |
